Measured values published in patent publication US12331324B2, “Versatile peroxidases and uses thereof” (Yeda Research and Development Co. Ltd., priority 2021, dated 2025).
Like-named read-outs stand apart in the source and are kept apart here.

How the values were obtained:
[1] = target: Pleurotus eryngii versatile peroxidase VPL, variant R4 (VPL-R4, previously evolved for expression; wild type SEQ ID NO: 8) (Pleurotus eryngii, UniProt O94753); type: biochemical; settings: 25° C.
Experimental: (§1) VPs production and purification. A colony from S. cerevisiae clone containing the VP gene (5H, 8H, 11H, VPL_R4, VPL_2-1B) was picked from an SC drop-out plate, inoculated in 25 mL minimal medium in a 250 flask, and incubated for 48 hours at 30° C. and 225 rpm. An aliquot of cells was removed and used to inoculate 100 mL of minimal medium in a 1 L flask to an OD600 nm of 0.25-0.30, under the same conditions. The cells completed two growth phases (8-10 hours, reaching OD600 nm˜1-1.5), then the expression medium (450 mL) was inoculated with 50 mL of the pre-culture in a 2 L flask (OD600 nm˜0.1). Cells were incubated for a further ˜60 hours at 30° C. and 225 rpm. Thereafter, cells were centrifuged at 6000 g for 15 min at 4° C., and the supernatant was collected and filtered with a 0.2 μm filter bottle.
(§2) Filtrates were subjected to fractional precipitation with ammonium sulfate in two steps: first cut of 50%, followed by centrifugation and elimination of the precipitates, and the second cut of 70%. Buffer A was used to dissolve the pellet, and the dissolved protein solution was shaken overnight at 4° C. for maximal recovery. The dissolved fraction was then centrifuged, filtrated, concentrated, and subjected to overnight dialysis against buffer A. Filtered fractions of the VP proteins after dialysis were uploaded into a HiTrap™ Q HP Column (GE Healthcare Bio-Sciences AB, Uppsala, Sweden) pre-equilibrated with buffer A, through ÄKTA pure protein purification system (GE Healthcare Bio-Sciences AB). Proteins were eluted in a two-step linear gradient from 0 to 1 M NaCl, at a flow rate of 1 ml/min: the first phase of 0-25% over 15 column volumes (75 min) and second phase of 25-100% over 2 column volumes (10 min). The fractions of the peak with the highest VP activity (and absorption at 407 nm) were pooled, concentrated, and dialyzed against 20 mM piperazine buffer pH=5.5 and 150 mM NaCl (buffer B). Protein fractions were then uploaded onto a Superdex 75 Increase 10/300 GL (GE Healthcare Bio-Sciences AB) through the ÄKTA pure system pre-equilibrated with buffer B. The fractions of the peak with the highest VP activity (and absorption at 407 nm) were pooled and dialyzed against buffer A. Pure protein samples were stored at 4° C. Protein concentration was determined using the BCA assay with bovine serum albumin as a standard.
(§3) pH activity profiles. For purified 5H, 8H, 11H, and R4, 20 μL protein samples (diluted in buffer A) were transferred into activity 96 plates (in the case of VA and MnSO4, UV-Star plates; Greiner Bio-One GmbH, Kremsmünster, Austria) and then, 180 μL of the reaction mixture were added to each row in the plate, and absorption at the appropriate wavelength (substrate-dependent) was recorded immediately in a kinetic mode in a plate-reader at 25° C. The reaction mixtures contained a specific substrate in 100 mM citrate-phosphate-borate buffer (pH 2, 3, 3.5, 4, 5, 6, 7, 8) and 0.1 mM H2O2. The activities were recorded in triplicate. The following substrate concentrations and absorption wavelengths were used: ABTS: 2 mM, 418 nm; DMP: 5 mM, 469 nm; RB5: 0.05 mM, 598 nm; VA: 30 mM, 310 nm. For manganese, the reaction mixtures contained 60 mM MnSO4 in 100 mM sodium tartrate buffer (pH 3, 3.5, 4, 4.5, 5) and 0.1 mM H2O2, and the Mn^3+-tartrate complex absorption was read at 238 nm. For each protein and substrate, the activities were normalized to the activity at optimal pH for residual activity calculations. Each activity assay was conducted in triplicate.
(§4) Kinetic parameters. Steady-state kinetics were determined for 5H, 8H, 11H and R4, by measuring the activity (initial rates) in increasing concentrations of the substrate, and the KM and Kcat values were calculated by fitting the results to the Michaelis-Menten model (V0=KcatES/(KM+S)).

[2] = test system: Ganoderma sp. 10597_SS1 versatile peroxidase VP8, designed variant 8H, SEQ ID NO: 2 (wild type SEQ ID NO: 5; mutations R4P, M5S, E34T, G59A, T65W, A67Q, V85I …); type: biochemical; settings: for Kcat / Kcat/KM / Km: 25° C.
Experimental: as §1, §2, §3, §4

[3] = test system: Pleurotus ostreatus versatile peroxidase VP5, designed variant 5H, SEQ ID NO: 1 (wild type SEQ ID NO: 4; mutations A11S, V15T, A17S, A19E, P26D, D38G, A40Q …)
Experimental: as §1
Filtrates were subjected to fractional precipitation with ammonium sulfate in two steps: first cut of 50%, followed by centrifugation and elimination of the precipitates, and the second cut of 70%. […] Protein concentration was determined using the BCA assay with bovine serum albumin as a standard.
pH activity profiles. […] The activities were recorded in triplicate. […] For manganese, the reaction mixtures contained 60 mM MnSO4 in 100 mM sodium tartrate buffer (pH 3, 3.5, 4, 4.5, 5) and 0.1 mM H2O2, and the Mn^3+-tartrate complex absorption was read at 238 nm. […]

[4] = test system: Pleurotus eryngii versatile peroxidase VPL, variant R4 (VPL-R4, previously evolved for expression; wild type SEQ ID NO: 8); type: biochemical
Experimental: as §1, §2, §3, §4

[5] = high efficiency site, optimum pH, 1 mM H2O2
[6] = low efficiency site, optimum pH, 1 mM H2O2
[7] = high efficiency site, optimum pH, 0.2 mM H2O2
[8] = low efficiency site, optimum pH, 0.2 mM H2O2
[9] = VA, RB5, optimum pH, 0.2 mM H2O2
[10] = H2O2 kinetics with 2 mM ABTS, optimum pH for ABTS
[11] = H2O2 kinetics with 3 mM ABTS, optimum pH for ABTS

Sequence of Pleurotus eryngii versatile peroxidase VPL, variant R4 (VPL-R4, previously evolved for expression; wild type SEQ ID NO: 8) (Pleurotus eryngii, UniProt O94753) (O94753 31-361, change not shown): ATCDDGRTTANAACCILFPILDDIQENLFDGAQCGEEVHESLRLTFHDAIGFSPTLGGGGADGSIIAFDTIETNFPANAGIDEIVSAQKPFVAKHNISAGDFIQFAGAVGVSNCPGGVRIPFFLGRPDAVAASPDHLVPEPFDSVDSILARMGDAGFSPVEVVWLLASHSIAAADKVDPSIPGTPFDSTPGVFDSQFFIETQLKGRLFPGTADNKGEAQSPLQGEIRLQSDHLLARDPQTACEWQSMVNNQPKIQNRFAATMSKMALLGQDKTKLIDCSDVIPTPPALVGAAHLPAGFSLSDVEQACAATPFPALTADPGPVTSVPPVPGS

COc1cccc(OC)c1O [DMP, 2,6-dimethoxyphenol]
Kcat [1, 5]: 0.74 ± 0.05 s⁻¹ | Kcat/KM [1, 5]: 542 ± 113 s⁻¹ mM⁻¹ | Km [1, 5]: 1.4 ± 0.3 µM | Kcat [1, 6]: 132 ± 7 s⁻¹ | Kcat/KM [1, 6]: 8.2 ± 1.0 s⁻¹ mM⁻¹ | Km [1, 6]: 16100 µM | heme-dependent affinity for DMP, fold higher relative to the other VPs ([2]; 8H relative to the other VPs (5H, 11H, R4)): at least 70 fold | Kcat [2, 7]: 2.2 ± 0.1 s⁻¹ | Kcat/KM [2, 7]: 94.6 ± 8.2 s⁻¹ mM⁻¹ | Km [2, 7]: 22.9 ± 1.8 µM | Kcat [2, 8]: 3.6 ± 0.1 s⁻¹ | Kcat/KM [2, 8]: 22.1 ± 1.6 s⁻¹ mM⁻¹ | Km [2, 8]: 164 ± 12 µM

COc1ccc(CO)cc1OC [VA, veratryl alcohol]
affinity for VA relative to the next best enzyme ([3]; 5H relative to the next best enzyme): more than an order of magnitude higher affinity | Kcat ([1]; VA, RB5, optimum pH, 1 mM H2O2): 5.4 ± 0.4 s⁻¹ | Kcat/KM ([1]; VA, RB5, optimum pH, 1 mM H2O2): 0.7 ± 0.1 s⁻¹ mM⁻¹ | Km ([1]; VA, RB5, optimum pH, 1 mM H2O2): 7400 µM | Kcat [2, 9]: 5.5 ± 0.1 s⁻¹ | Kcat/KM [2, 9]: 0.55 ± 0.02 s⁻¹ mM⁻¹ | Km [2, 9]: 10100 µM

OO [H2O2, Hydrogen peroxide]
H2O2 affinity, fold lower than seen in 11H ([3]; 5H relative to 11H): 5 fold | Kcat [1, 10]: 230 ± 9 s⁻¹ | Kcat/KM [1, 10]: 503 ± 61 s⁻¹ mM⁻¹ | Km [1, 10]: 457 ± 53 µM | H2O2 affinity, fold lower than seen in 11H [4]: 12 fold | H2O2 affinity, fold lower than seen in 11H ([2]; 8H relative to 11H): 2 fold | Kcat [2, 11]: 12.1 ± 0.6 s⁻¹ | Kcat/KM [2, 11]: 135 ± 21 s⁻¹ mM⁻¹ | Km [2, 11]: 89.7 ± 12.9 µM

CCn1c(=NN=c2sc3cc(S(=O)(=O)O)ccc3n2CC)sc2cc(S(=O)(=O)O)ccc21 [ABTS, 2,2′-azino-bis (3-ethylbenzothiazoline-6-sulfonic acid)]
Kcat [1, 5]: 1.3 ± 0.1 s⁻¹ | Kcat/KM [1, 5]: 3,300 ± 700 sec^−1 mM^−1 | Km [1, 5]: 0.39 ± 0.08 µM | Kcat [1, 6]: 400 ± 21 s⁻¹ | Kcat/KM [1, 6]: 405 ± 49 s⁻¹ mM⁻¹ | Km [1, 6]: 987 ± 107 µM | Kcat [2, 7]: 7.8 ± 0.3 s⁻¹ | Kcat/KM [2, 7]: 1550 ± 260 s⁻¹ mM⁻¹ | Km [2, 7]: 5 ± 0.8 µM | Kcat [2, 8]: 28.2 ± 0.9 s⁻¹ | Kcat/KM [2, 8]: 35.4 ± 4.4 s⁻¹ mM⁻¹ | Km [2, 8]: 795 ± 96 µM

Nc1c(N=Nc2ccc(S(=O)(=O)CCOS(=O)(=O)O)cc2)c(S(=O)(=O)O)cc2cc(S(=O)(=O)O)c(N=Nc3ccc(S(=O)(=O)CCOS(=O)(=O)O)cc3)c(O)c12 [RB5, reactive black 5]
Kcat ([1]; VA, RB5, optimum pH, 1 mM H2O2): 0.63 ± 0.02 s⁻¹ | Kcat/KM ([1]; VA, RB5, optimum pH, 1 mM H2O2): 487 ± 51 s⁻¹ mM⁻¹ | Km ([1]; VA, RB5, optimum pH, 1 mM H2O2): 1.3 ± 0.1 µM | Kcat [2, 9]: 1.1 ± 0.1 s⁻¹ | Kcat/KM [2, 9]: 65.0 ± 7.2 s⁻¹ mM⁻¹ | Km [2, 9]: 17.3 ± 1.7 µM
